Reference: US11390648B2, “Peptide” (HYSENSBIO, priority 2017, dated 2022)

Tested on: Dspp gene
Assay: Dspp mRNA level in human dental pulp cells treated with peptide (real-time PCR)
Format: cell-based
Conditions: hDPCs, peptide 10 μg/ml, 48 hours; ratio relative to Dspp mRNA level of untreated control; GAPDH internal control; triplicate
Method: Human dental pulp cells were separated from wisdom teeth of adults (aged 18-22) at the School of Dentistry, Seoul National University. In detail, all experiments were performed after the approval of the Institutional Review Board and the informed consent from patients. Wisdom teeth were fractured according to a method of Jung HS et al. (J Mol Histol.(2011)) to expose the dental pulps, and dental pulp tissues were separated with forceps. Each of the separated dental pulp tissues was cut into small pieces with a razor blade, put in a 60-mm dish, covered with a coverslip, and then cultured in a Dulbecco's modified Eagle's medium. It has been known that human dental pulp cells can differentiate into odontoblast, osteoblast, cementoblast, and periodontal ligament cells under various conditions (Tissue Eng Part A. 2014 April; 20 (7-8): 1342-51).
Total RNA was extracted from human dental pulp cells (hDPCs), and human bone marrow mesenchymal stem cells (hBMSCs) with TRIzol reagent. 2 μg of the total RNA, 1 μl of reverse transcriptase, and 0.5 μg of oligo (oligo; dT) were used to synthesize cDNA. The synthesized cDNA was used in a real-time polymerase chain reaction. The real-time polymerase chain reaction was performed on an ABI PRISM 7500 sequence detection system (Applied Biosystems) and an SYBR GREEN PCR Master Mix (Takara, Japan). The real-time polymerase chain reaction was performed under conditions of 94° C., 1 min; 95° C., 15 sec; 60° C., 34 sec for 40 cycles. Results were analyzed by a comparative cycle threshold (CT) method. And the used primers are as follows (Table 17).
The human dental pulp cells (hDPCs) cultured in Example 3 were treated with the peptides (concentration of 10 μg/ml) of each group synthesized in Example 1-1, and cultured for 48 hours. Then, mRNA levels of an odontoblast differentiation marker Dspp gene expressed in the human dental pulp cells were measured, and a ratio of the measured Dspp mRNA level relative to a Dspp mRNA level measured in a control group was calculated, respectively (Tables 18 to 33).
The expression level of the Dspp gene was measured through RT-PCR and real-time PCR analysis described in Example 1-4. In this regard, GAPDH gene was used as an internal control. The experiments were performed in triplicate, and then mean values and standard deviations thereof were taken as measured values. The base sequence of the primers is described in Table 17 above.

Going from “87 (KYKNKKR; Novel peptide) [compound 87]” to “88 (KYKNKRR; Novel peptide) [compound 88]”, the “mRNA level of Dspp gene, Mean” value falls from 1.888 to 1.539.

Compared with “89 (KYQNRKK; Novel peptide) [compound 89]”, “90 (KYQNRKR; Novel peptide) [compound 90]” is higher in “mRNA level of Dspp gene, Mean” value: 1.635 for the first, 1.797 for the second.

Compared with “91 (KYQNRRK; Novel peptide) [compound 91]”, “92 (KYQNRRR; Novel peptide) [compound 92]” is lower in “mRNA level of Dspp gene, Mean” value: 1.913 for the first, 1.498 for the second.

Going from “93 (KYQNKKK; Novel peptide) [compound 93]” to “94 (KYQNKRK; Novel peptide) [compound 94]”, the “mRNA level of Dspp gene, Mean” value falls from 1.892 to 1.487.

Going from “95 (KYQNKKR; Novel peptide) [compound 95]” to “96 (KYQNKRR; Novel peptide) [compound 96]”, the “mRNA level of Dspp gene, Mean” value rises from 1.939 to 2.011.

Compared with “97 (KYNQRKK; Novel peptide) [compound 97]”, “98 (KYNQRKR; Novel peptide) [compound 98]” is lower in “mRNA level of Dspp gene, Mean” value: 1.515 for the first, 1.479 for the second.

First: 99 (KYNQRRK; Novel peptide) [compound 99]
Second: 100 (KYNQRRR; Novel peptide) [compound 100]
The “mRNA level of Dspp gene, Mean” value of the first is higher: 1.737 for the first, 1.599 for the second.

Going from “101 (KYNQKKK; Novel peptide) [compound 101]” to “102 (KYNQKRK; Novel peptide) [compound 102]”, the “mRNA level of Dspp gene, Mean” value rises from 1.674 to 1.855.

Compared with “103 (KYNQKKR; Novel peptide) [compound 103]”, “104 (KYNQKRR; Novel peptide) [compound 104]” is higher in “mRNA level of Dspp gene, Mean” value: 1.737 for the first, 1.878 for the second.

First: 105 (KYNNRKK; Novel peptide) [compound 105]
Second: 106 (KYNNRKR; Novel peptide) [compound 106]
The “mRNA level of Dspp gene, Mean” value of the first is lower: 1.664 for the first, 1.673 for the second.

Going from “107 (KYNNRRK; Novel peptide) [compound 107]” to “108 (KYNNRRR; Novel peptide) [compound 108]”, the “mRNA level of Dspp gene, Mean” value falls from 1.935 to 1.495.

Going from “109 (KYNNKKK; Novel peptide) [compound 109]” to “110 (KYNNKRK; Novel peptide) [compound 110]”, the “mRNA level of Dspp gene, Mean” value falls from 1.756 to 1.595.

Going from “111 (KYNNKKR; Novel peptide) [compound 111]” to “112 (KYNNKRR; Novel peptide) [compound 112]”, the “mRNA level of Dspp gene, Mean” value falls from 1.918 to 1.699.

Going from “113 (KYRKRKK; Novel peptide) [compound 113]” to “114 (KYRKRKR; Novel peptide) [compound 114]”, the “mRNA level of Dspp gene, Mean” value rises from 1.778 to 1.849.

Compared with “115 (KYRKRRK; Novel peptide) [compound 115]”, “116 (KYRKRRR; Novel peptide) [compound 116]” is lower in “mRNA level of Dspp gene, Mean” value: 1.707 for the first, 1.693 for the second.

Going from “117 (KYRKKKK; Novel peptide) [compound 117]” to “118 (KYRKKRK; Novel peptide) [compound 118]”, the “mRNA level of Dspp gene, Mean” value rises from 1.929 to 2.015.

Going from “119 (KYRNKKR; Novel peptide) [compound 119]” to “120 (KYRNKRR; Novel peptide) [compound 120]”, the “mRNA level of Dspp gene, Mean” value falls from 2.121 to 1.878.

First: 121 (KYKKRKK; Novel peptide) [compound 121]
Second: 122 (KYKKRKR; Novel peptide) [compound 122]
The “mRNA level of Dspp gene, Mean” value of the first is higher: 2.024 for the first, 1.979 for the second.

First: 123 (KYKKRRK; Novel peptide) [compound 123]
Second: 124 (KYKKRRR; Novel peptide) [compound 124]
The “mRNA level of Dspp gene, Mean” value of the first is lower: 1.837 for the first, 2.017 for the second.

Compared with “125 (KYKKKKK; Novel peptide) [compound 125]”, “126 (KYKKKRK; Novel peptide) [compound 126]” is lower in “mRNA level of Dspp gene, Mean” value: 2.082 for the first, 1.798 for the second.

Compared with “127 (KYKKKKR; Novel peptide) [compound 127]”, “128 (KYKKKRR; Novel peptide) [compound 128]” is lower in “mRNA level of Dspp gene, Mean” value: 1.888 for the first, 1.765 for the second.
